Legend:
Format in all cases: cell-based
[1] = system: U251MG cell mitochondrial respiration; assay: Mitochondrial respiratory function assay (OCR, Seahorse); conditions: U251MG cells, stressed conditions (oligomycin, FCCP, rotenone); within minutes
Experimental: The effect of test compounds on the mitochondrial oxygen consumption rate (OCR) was determined in real time using a Seahorse Xr24 extracellular flux analyzer (Seahorse Bioscience). The cell-based assay was performed essentially as recommended by the manufacturer. Briefly, cells were seeded in a 24 well XF plate using an appropriate cell density. “Flux Pak” cartridge (containing the O2 and H^+ sensitive fluorophores) were hydrated in the XF calibrant solution overnight just prior to running the assay. On the following day, the cells were replenished with XF assay media (unbuffered DMEM containing 10 mM glucose and 2 mM pyruvate) and placed in a CO2 free 37° C. incubator for an additional one hour. Basal OCR was measured before the wells were injected with test compounds. Subsequently, mitochondrial bioenergetics stress was determined by treating the cells sequentially with 0.125 mg/ml Oligomycin (ATP synthase inhibitor), […] FCCP (uncoupler) and […] rotenone (Complex I inhibitor) while continuously measuring the OCR.

[2] = system: EGFR levels in U251MG cells; assay: Biomarker quantitation by ELISA, EGFR; conditions: 16 uM, 48 h
Experimental: U251 cells were plated in 6 well format culture dishes overnight at 37° C. with 5% CO2 and then treated with increasing concentrations of test compounds for 48 h at 37° C. with 5% CO2. Quantification of total Akt1, EGFR, and Hsp70 in cell lysates was accomplished using ELISA kits (R&D Systems) according to the manufacturer's recommendations and utilizing a Synergy HT micro-titer plate reader (Biotek). Cell lysates were prepared as recommended in the kit procedure. Protein concentrations of lysates clarified using centrifugation were determined using a Bradford assay (Thermo Scientific), and the values were used to normalize the biomarker values.

U251MG cells = assay: Cell viability assay, cellular dehydrogenase activity (CCK-8); conditions: Homo sapiens, U-251; 72 h at 37° C.; FIG. 1A
Experimental: U251MG cells were maintained at 37° C. and 5% CO2 in RPMI media supplemented with glutamax and containing 10% heat-inactivated fetal bovine serum and 1% penicillin/streptomycin (Life Sciences).
A cell counting kit (CCK-8 assay kit, Dojindo) and an ADP-Glo assay (Life Technologies) were used to quantitate the effects of test compounds on cell viability. U251MG cells were seeded into 96 well tissue culture plates and incubated for 16 h at 37° C. with 5% CO2. Increasing concentrations of test compounds were added to the wells from DMSO-containing stock solutions to a final DMSO concentration of 0.05% and incubated for 72 hr at 37° C. CCK-8 kit reagent or ADP-GLO reagent were then added to the wells and absorbance was measured at 450 nm (for the CCK assay) using a Synergy HT micro-titer plate reader (Biotek) or luminescence was measured (for the ADP-GLO assay) using a POLARstar Omega micro-titer plate reader (BMG).

[3] = system: caspase 3/7 activity in U251MG cells; assay: Caspase activation assay (Caspase-3/7 luminescence); conditions: 48 h
Experimental: U251MG cells were seeded, maintained, and treated with test compounds as described above for 48 h at 37° C. Quantification of total cellular Caspase-3 and 7 activity was accomplished using a Caspase-3/7 luminescence assay kit (Promega) according to the manufacturer's recommendations and analyzed with a POLARstar Omega micro-titer plate reader (BMG).

COc1c(C)cnc(CN(CCc2ccccn2)c2cc(Cl)nc(N)n2)c1C [Compound 1, 6-chloro-4-N-[(4-methoxy-3,5-dimethylpyridin-2yl)methyl]-4-N-[2-(pyridine-2-yl)ethyl]pyrimidine-2,4-amine]
Effect on mitochondrial oxygen consumption rate [1]: dose-dependent decrease | Reduction of EGFR levels [2]: 71% | IC50 (U251MG cells): 1720 nM | U251MG caspase 3/7 activity increase ([3]; 50 uM): 6.8 fold | Lowest concentration at which an increase in caspase activity was observed ([3]; U251MG): 1.6 µM

From patent US10189824B2, “Pyrimidine-diamine dual HSP90/TRAP1 inhibitors” (CalAsia Pharmaceuticals, Inc., priority 2014, dated 2019)
